Test results taken from PMC11743353 (Pharmacological Reports, 2024).
Read-outs that look alike come from different tables or passages of the source.

Assays:
[1] = MTT assay for cell viability; format: cell-based; settings: human, Calu-3 cells, read-out: CC50 (cytotoxic concentration 50%)
[2] = test system: ACE2 expression on Calu-3 cell surface; experiment: ACE2 immunofluorescence assay on Calu-3 cell surface; format: cell-based, human; settings: Calu-3 cells; for ACE2 expression on cell membranes (immunofluorescence): 25 µM, 24 h and 48 h, compared to untreated
Experimental: Calu-3 cells were incubated with a specific antibody against human angiotensin-converting enzyme 2 (ACE2) (SN0754 Thermo Fisher; Italy) as previously reported, followed by incubation with the FITC goat antirabbit IgG (H + L) secondary antibody (Thermo Fisher, Milan, Italy). Immunofluorescence was observed by fluorescence microscopy (Nikon Eclipse TE2000S, Milan, Italy). DNA was stained using DAPI (Thermo Fisher, Milan, Italy) to identify cell nuclei and reported as relative fluorescence units (RFU) compared to untreated control sample, by immunofluorescence quantification derived by the analysis of 5 different images derived by biological replicates, using Qupath software. In Brief, for each condition, the percentage of ACE2-positive stained cells was obtained considering the total DAPI-stained nuclei as 100% and then normalized on untreated control sample result and reported as fold difference value.
Considering the role of ACE2 receptor in viral entry into host cells, and the ability of ADAM17 to shed it from cell surface, we analyzed ACE2 expression on Calu-3 cell surface by immunofluorescence after 24 and 48 h of treatment with the three compounds, at the concentration of 25 µM (Fig. 4 and supplementary Figure S1).

SARS-CoV-2 [3] = experiment: microbe, parasite or virus in culture; format: cell-based; settings: for EC50: Severe acute respiratory syndrome coronavirus 2, Calu-3
SARS-CoV-2 [4] = experiment: Plaques analysis (plaque dimension on Vero E6 cells); settings: Vero E6 cells infected with supernatants of treated Calu-3 cells; mean diameter of 10 plaques
Experimental: In order to assess the levels of infective SARS-CoV-2 released by treated or untreated cells, a plaque assay was performed. Vero E6 were seeded in 12-well plates and infected with serial dilution (10-fold) of the supernatants derived from treated and infected Calu-3 cells. Plaques were visible five days after infection, then cells were methanol-fixed, stained with crystal violet (0.1%) and plaques were manually counted [26] (microscope NeXcope NE620). The experiments were run in triplicate.
After crystal violet (0.1%) staining for antiviral activity assessment, plaques forming unit were identified and measured in size. Dimension of plaques derived by cytopathic effect of SARS-CoV-2 in Vero E6 cells was evaluated by microscopy (NeXcope NE620). For each well, 5 different fields were manually selected, and at least 10 plaques for each condition were identified and measured using NeXcope visualization software (Capture V.2.0) and reported as mean diameter (mm) ± SD.

MMP-1 [5] = molecular target: T1, MMP-1 (Homo sapiens, UniProt P03956); settings: isolated enzyme, fluorometric assay; cited from earlier work
T1 construct: purchased Merck Millipore 444208
T1 sequence (P03956 100-469): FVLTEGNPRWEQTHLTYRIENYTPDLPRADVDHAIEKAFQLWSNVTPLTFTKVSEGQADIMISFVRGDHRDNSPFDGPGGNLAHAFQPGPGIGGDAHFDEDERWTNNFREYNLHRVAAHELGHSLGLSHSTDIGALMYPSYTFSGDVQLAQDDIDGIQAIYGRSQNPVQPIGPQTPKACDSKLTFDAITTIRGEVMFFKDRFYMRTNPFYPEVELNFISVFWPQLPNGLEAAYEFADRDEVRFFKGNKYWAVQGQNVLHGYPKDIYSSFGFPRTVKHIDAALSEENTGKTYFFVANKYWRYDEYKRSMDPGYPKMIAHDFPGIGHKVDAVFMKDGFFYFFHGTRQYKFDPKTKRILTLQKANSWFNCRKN

MMP-1 [6] = molecular target: T1, MMP-1; experiment: Fluorometric enzyme inhibition assay, MMP-1; format: biochemical; settings: isolated enzyme
recombinant human ADAM17 = molecular target: T2, recombinant human ADAM17 (Homo sapiens, UniProt P78536); experiment: Fluorometric enzyme inhibition assay, ADAM17; format: biochemical; settings: isolated enzyme
T2 construct: purchased Merck Millipore PF133
T2 sequence (P78536 215-824): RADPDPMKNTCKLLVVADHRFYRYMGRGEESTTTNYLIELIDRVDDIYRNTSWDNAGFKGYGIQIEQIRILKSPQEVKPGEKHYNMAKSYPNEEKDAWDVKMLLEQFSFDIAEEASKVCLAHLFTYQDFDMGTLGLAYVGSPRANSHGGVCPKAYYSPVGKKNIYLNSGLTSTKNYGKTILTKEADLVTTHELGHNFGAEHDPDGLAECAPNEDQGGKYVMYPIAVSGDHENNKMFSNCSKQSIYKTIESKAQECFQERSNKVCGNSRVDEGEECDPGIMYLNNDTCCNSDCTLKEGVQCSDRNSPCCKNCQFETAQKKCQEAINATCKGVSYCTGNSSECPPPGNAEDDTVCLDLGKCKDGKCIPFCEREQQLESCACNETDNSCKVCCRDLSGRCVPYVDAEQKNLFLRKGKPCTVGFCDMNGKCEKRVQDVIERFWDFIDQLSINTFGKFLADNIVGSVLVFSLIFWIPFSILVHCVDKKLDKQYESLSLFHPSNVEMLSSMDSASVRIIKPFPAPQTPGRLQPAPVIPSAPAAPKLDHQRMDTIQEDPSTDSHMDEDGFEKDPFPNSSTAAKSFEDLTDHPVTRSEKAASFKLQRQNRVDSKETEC

MMP-9 = molecular target: T3, MMP-9 (Homo sapiens, UniProt P14780); experiment: Fluorometric enzyme inhibition assay, MMP-9; format: biochemical; settings: isolated enzyme
T3 construct: purchased Merck Millipore PF038
T3 sequence (P14780 107-707 limits assumed): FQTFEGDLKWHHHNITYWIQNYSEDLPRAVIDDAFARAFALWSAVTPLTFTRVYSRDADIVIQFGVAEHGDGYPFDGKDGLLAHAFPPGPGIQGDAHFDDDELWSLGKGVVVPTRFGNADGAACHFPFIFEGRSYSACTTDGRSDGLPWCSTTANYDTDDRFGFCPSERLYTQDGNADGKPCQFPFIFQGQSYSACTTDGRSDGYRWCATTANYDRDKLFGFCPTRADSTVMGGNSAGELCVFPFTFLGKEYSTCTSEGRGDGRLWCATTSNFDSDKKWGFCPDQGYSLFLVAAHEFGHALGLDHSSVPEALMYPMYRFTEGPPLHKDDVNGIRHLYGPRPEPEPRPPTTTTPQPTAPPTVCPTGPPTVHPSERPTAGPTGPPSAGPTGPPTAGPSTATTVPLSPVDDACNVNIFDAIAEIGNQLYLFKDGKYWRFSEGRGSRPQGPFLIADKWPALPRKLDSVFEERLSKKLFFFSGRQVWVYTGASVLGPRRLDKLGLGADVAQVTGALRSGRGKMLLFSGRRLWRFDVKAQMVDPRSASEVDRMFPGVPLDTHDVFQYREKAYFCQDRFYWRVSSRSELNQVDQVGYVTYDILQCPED

MMP-2 = molecular target: T4, MMP-2 (Homo sapiens, UniProt P08253); experiment: Fluorometric enzyme inhibition assay, MMP-2; format: biochemical; settings: isolated enzyme
T4 construct: purchased Merck Millipore PF037
T4 sequence (P08253 110-660): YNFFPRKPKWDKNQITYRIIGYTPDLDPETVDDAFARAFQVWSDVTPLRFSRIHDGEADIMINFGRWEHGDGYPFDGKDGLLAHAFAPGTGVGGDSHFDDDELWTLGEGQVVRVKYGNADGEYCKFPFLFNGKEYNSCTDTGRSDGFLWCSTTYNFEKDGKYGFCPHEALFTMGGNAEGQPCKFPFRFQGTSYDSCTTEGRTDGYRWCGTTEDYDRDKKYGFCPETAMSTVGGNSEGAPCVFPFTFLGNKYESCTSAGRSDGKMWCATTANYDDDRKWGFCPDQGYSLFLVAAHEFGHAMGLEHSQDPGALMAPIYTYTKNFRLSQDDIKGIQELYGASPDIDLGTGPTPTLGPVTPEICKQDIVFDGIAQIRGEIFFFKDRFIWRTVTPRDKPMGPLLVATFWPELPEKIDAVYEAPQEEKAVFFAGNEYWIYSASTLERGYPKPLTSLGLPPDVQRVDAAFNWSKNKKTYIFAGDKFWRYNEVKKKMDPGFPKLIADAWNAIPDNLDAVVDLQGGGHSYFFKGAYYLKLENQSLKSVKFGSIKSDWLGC

Recombinant human ADAM10 = molecular target: T5, Recombinant human ADAM10 (Homo sapiens, UniProt O14672); experiment: Fluorometric enzyme inhibition assay, ADAM10; format: biochemical; settings: isolated enzyme
T5 construct: purchased R&D Systems 936-AD
T5 sequence (O14672 214-748): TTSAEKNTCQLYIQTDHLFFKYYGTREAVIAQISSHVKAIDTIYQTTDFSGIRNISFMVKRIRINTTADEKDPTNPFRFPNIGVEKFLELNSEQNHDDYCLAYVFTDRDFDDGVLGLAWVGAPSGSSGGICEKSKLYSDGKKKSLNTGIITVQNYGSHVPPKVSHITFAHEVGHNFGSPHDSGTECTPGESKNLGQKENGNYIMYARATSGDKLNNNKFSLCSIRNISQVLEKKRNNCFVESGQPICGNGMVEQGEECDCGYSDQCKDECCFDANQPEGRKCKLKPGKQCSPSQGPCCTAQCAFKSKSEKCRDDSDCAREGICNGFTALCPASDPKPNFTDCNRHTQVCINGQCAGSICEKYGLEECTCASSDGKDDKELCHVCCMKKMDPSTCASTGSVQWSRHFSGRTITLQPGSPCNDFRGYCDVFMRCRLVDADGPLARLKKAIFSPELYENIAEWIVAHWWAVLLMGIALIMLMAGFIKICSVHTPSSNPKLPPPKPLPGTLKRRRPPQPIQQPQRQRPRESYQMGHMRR

[7] = molecular target: T6, Recombinant human MMP-14 catalytic domain (Homo sapiens, UniProt P50281); experiment: Fluorometric enzyme inhibition assay, MMP-14; format: biochemical; settings: isolated enzyme
T6 construct: Recombinant human MMP-14 catalytic domain was a kind gift of Prof; Gillian Murphy; gift of Prof; Gillian Murphy (Department of Oncology, University of Cambridge, UK)

CD16 shedding = test system: CD16 shedding; parameters: method as in PMID 28192188; settings: 30 µM; PBMC co-cultured with hepatitis C virus-infected HuH7.5 cells; cited from earlier work
SARS-CoV-2 [8] = format: cell-based
SARS-CoV-2 [9] = format: cell-based; remark: listed apart in the source
sALCAM release = test system: sALCAM release; parameters: method as in PMID 24044434; settings: ovarian cancer cell lines; cited from earlier work
[10] = using CC50 values after 48 h of treatment

| Structure (SMILES) | CC50 at 24 h [1] [µM] | CC50 at 48 h [1] [µM] | ACE2 expression on cell membranes (immunofluorescence) [2] | EC50 (SARS-CoV-2 [3]) [µM] | SI (selectivity index, CC50/EC50) (SARS-CoV-2 [3]; [10]) | Plaque dimension (mm ± SD) (SARS-CoV-2 [4]) [mm] | IC50 (MMP-1 [5]) [µM] | also measured |
| --- | --- | --- | --- | --- | --- | --- | --- | --- |
| O=C(NCCC[C@@H](NS(=O)(=O)c1ccc(OCc2cc(Br)cc(Br)c2)cc1)C(=O)NO)c1cccc(C(=O)NCCC[C@@H](NS(=O)(=O)c2ccc(OCc3cc(Br)cc(Br)c3)cc2)C(=O)NO)c1 [Compound 1] | 113 | 113 | increased ACE2 expression | 12.7 | 8.91 | 0.53± 0.19 | > 200 | – |
| CC(=O)N[C@@H]1[C@@H](O)[C@H](O)[C@@H](CO)O[C@H]1NC(=S)NCCOCCOCCOCCOCCC(=O)NCCC[C@@H](NS(=O)(=O)c1ccc(OCc2cc(Br)cc(Br)c2)cc1)C(=O)NO [Compound 2, 1-(((2R, 3R, 4R, 5 S, 6R)-3-acetamido-4,5-dihydroxy-6-(hydroxymethyl)tetrahydro-2 H-pyran-2-yl)amino)-N-((R)-4-(4-((3,5-dibromobenzyl)oxy)phenylsulfonamido)-5-(hydroxyamino)-5-oxopentyl)-1-thioxo-5,8, 11, 14-tetraoxa-2-azaheptadecan-17-amide] | 67.2 | 72 | – | 13.6 | 5.29 | 0.61± 0.23 | – | IC50 (MMP-1 [6]): > 200 µM; IC50 (recombinant human ADAM17): 0.0055 µM; IC50 (MMP-9): 1.77 µM; IC50 (MMP-2): 0.32 µM; IC50 (Recombinant human ADAM10): 0.81 µM; IC50 [7]: 70.7 µM |
| NC(=O)NCCC[C@@H](NS(=O)(=O)c1ccc(OCc2cc(Br)cc(Br)c2)cc1)C(=O)NO [JG26] | 77.9 | 107 | increased ACE2 expression | 8.1 | – | 0.42± 0.2 | > 500 | reduction of CD16 shedding (CD16 shedding): active; LR vs DMSO (viral load logarithmic reduction), plaque assay (SARS-CoV-2 [8]): 1.44; effect on viral infection at lower concentration (SARS-CoV-2 [8]): did not show any effect; LR vs DMSO (viral load logarithmic reduction), RT-qPCR (SARS-CoV-2 [9]): 2.37; SI (selectivity index, CC50/EC50) (SARS-CoV-2 [3]): 13.23; block of sALCAM release (sALCAM release): able to block sALCAM release |
| CCCCCCCCCCCCCC(=O)O[C@@H]1[C@@H](C)[C@@]2(O)[C@@H](C=C(CO)C[C@]3(O)C(=O)C(C)=C[C@@H]23)[C@@H]2C(C)(C)[C@]12OC(C)=O [PMA, Phorbol 12-myristate 13-acetate, reference compound] | – | – | – | – | – | 0.82± 0.32 | – | effect on SARS-CoV-2 infection (plaque assay and genome titration) (SARS-CoV-2 [8]): induced a sensible SARS-CoV-2 infection progression; ACE2 expression (immunofluorescence), ADAM17 inductor control ([2]; PMA control, compared to untreated samples): slightly decreased ACE2 expression |
